Results as given in US10913736B2 (UNIVERSITY OF WASHINGTON, priority 2014, dated 2021).
Values joined by “and” are separate entries in the source; they are usually repeats but may differ in a detail not shown here. Identical values can stand only once. Like-named read-outs stand apart in the source and are kept apart here.

Tests used:
T. brucei = assay: Growth inhibition assay of T. brucei cell cultures (Alamar Blue, 48 h); type: cell-based
MetRS (T. brucei) = MetRS (T. brucei) (Trypanosoma brucei brucei, UniProt Q38C91); assay: MetRS (T. brucei) ATP depletion assay using Kinase-Glo; type: biochemical
MetRS (T. brucei), sequence (Q38C91 entry or part of it): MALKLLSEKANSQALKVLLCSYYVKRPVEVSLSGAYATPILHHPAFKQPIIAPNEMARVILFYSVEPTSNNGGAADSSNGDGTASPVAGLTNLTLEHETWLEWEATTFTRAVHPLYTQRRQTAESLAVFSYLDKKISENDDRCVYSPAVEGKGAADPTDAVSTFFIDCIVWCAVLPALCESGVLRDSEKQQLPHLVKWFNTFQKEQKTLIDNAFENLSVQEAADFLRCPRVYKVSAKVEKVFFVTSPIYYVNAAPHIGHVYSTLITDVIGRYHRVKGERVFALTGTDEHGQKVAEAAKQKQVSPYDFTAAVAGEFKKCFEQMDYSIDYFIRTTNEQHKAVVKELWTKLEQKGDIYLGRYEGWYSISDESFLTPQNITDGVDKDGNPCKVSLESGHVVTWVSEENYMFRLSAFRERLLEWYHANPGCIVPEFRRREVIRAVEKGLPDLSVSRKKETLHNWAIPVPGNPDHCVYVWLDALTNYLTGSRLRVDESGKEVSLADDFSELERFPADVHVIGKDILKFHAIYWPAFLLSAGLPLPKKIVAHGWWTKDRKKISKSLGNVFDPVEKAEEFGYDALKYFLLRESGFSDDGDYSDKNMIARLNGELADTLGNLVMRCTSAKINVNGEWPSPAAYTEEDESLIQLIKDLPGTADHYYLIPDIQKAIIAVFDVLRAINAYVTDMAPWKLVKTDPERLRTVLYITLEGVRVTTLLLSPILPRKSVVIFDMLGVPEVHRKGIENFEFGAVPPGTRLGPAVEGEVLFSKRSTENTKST

[1] = Trypanosoma brucei; read-out: B) T. brucei EC50

## O=C(CCNc1ccc(Cl)cc1Cl)NCc1nc2ccccc2[nH]1 [Compound 1763, N-(1H-Benzoimidazol-2-ylmethyl)-3-(2,4-dichloro-phenylamino)-propionamide]
T. brucei; [1]
  EC50: 12.7 µM
MetRS (T. brucei)
  IC50: 0.168 µM

## O=C(Cc1nc2cc(Cl)cc(Cl)c2[nH]1)NCc1nc2ccccc2[nH]1 [Compound 1764, N-((1H-benzo[d]imidazol-2-yl)methyl)-2-(5,7-dichloro-1H-benzo[d]imidazol-2-yl)acetamide]
T. brucei; [1]
  EC50: > 20 µM
MetRS (T. brucei)
  IC50: > 10 µM

## O=C(/C=C/Oc1ccc(Cl)cc1Cl)NNc1nc2ccccc2[nH]1 [Compound 1765, (2E)-N′-(1H-1,3-benzodiazol-2-yl)-3-(2,4-dichlorophcnoxy)prop-2-enehydrazide]
T. brucei; [1]
  EC50: > 20 µM
MetRS (T. brucei)
  IC50: > 10 µM

## CNCc1cc(Cl)cc(Cl)c1O/C=C/C(=O)NCc1nc2ccccc2[nH]1 [Compound 1779, (2E)-N-(1H-1,3-benzodiazol-2-ylmethyl)-3-{2,4-dichloro-6-[(methylamino)methyl]phenoxy}prop-2-enamide]
T. brucei; [1]
  EC50: > 20 µM
MetRS (T. brucei)
  IC50: > 10 µM

## Clc1cc(Cl)cc(CNCCc2nc3ccc(Cl)nc3[nH]2)c1 [Compound 1780, [2-(5-chloro-3H-imidazo[4,5-b]pyridin-2-yl)-ethyl]-(3,5-dichloro-benzyl)-amine]
T. brucei; [1]
  EC50: 1.16 µM
T. brucei; read-out: B) T. brucei EC50
  EC50: 1.06 µM
MetRS (T. brucei)
  IC50: 0.067 µM and 0.036 µM

## O=C(NCc1cc(Cl)cc(Cl)c1)N1CCCC(c2nc3nc(Cl)ccc3[nH]2)C1 (stereo not drawn) [Compound 1785, 3-(5-chloro-1H-imidazo[4,5-b]pyridin-2-yl)-N-(3,5-dichlorobenzyl) piperidine-1-carboxamide]
T. brucei; [1]
  EC50: > 20 µM
MetRS (T. brucei)
  IC50: > 10 µM

## O=C(Cc1cc(Cl)cc(Cl)c1)NC1CCCC(c2nc3nc(Cl)ccc3[nH]2)C1 (stereo not drawn) [Compound 1786, N-(3-(5-chloro-1H-imidazo[4,5-b]pyridin-2-yl)cyclohexyl)-2-(3,5-dichlorophenyl)acetamide]
T. brucei; [1]
  EC50: 5.67 µM
MetRS (T. brucei)
  IC50: 0.31 µM

## O=C(Cc1cc(Cl)cc(Cl)c1)N1CCOC(c2nc3nc(Cl)ccc3[nH]2)C1 (stereo not drawn) [Compound 1790, 1-(2-(5-chloro-1H-imidazo[4,5-b]pyridin-2-yl)morpholino)-2-(3,5-dichlorophenyl)ethanone]
T. brucei; [1]
  EC50: 2.7 µM
MetRS (T. brucei)
  IC50: 0.105 µM

## Nc1nc(Cl)ccc1NC(=O)C1CN(C(=O)Cc2cc(Cl)cc(Cl)c2)CCN1 (stereo not drawn) [Compound 1791, N-(2-amino-6-chloropyridin-3-yl)-4-(2-(3,5-dichlorophenyl)acetyl) piperazine-2-carboxamide]
T. brucei; [1]
  EC50: > 20 µM
MetRS (T. brucei)
  IC50: 8.48 µM

## O=C1N[C@@H](Cc2ccc(Cl)cc2Cl)CN1Cc1nc2ccccc2[nH]1 [Compound 1792, 1-(1H-Benzoimidazol-2-ylmethyl)-4-(2,4-dichloro-benzyl)-imidazolidin-2-one]
T. brucei; [1]
  EC50: 2.68 µM
MetRS (T. brucei)
  IC50: 0.15 µM

## NC(Cc1nc2ccccc2[nH]1)C(=O)NCCc1ccc(Cl)cc1Cl (stereo not drawn) [Compound 1795, N-(2,4-dichlorophenethyl)-2-amino-3-(1H-benzo[d]imidazol-2-yl)propanamide]
T. brucei; [1]
  EC50: 12.3 µM
MetRS (T. brucei)
  IC50: > 10 µM

## Fc1ccc2[nH]c(C3CCCN(CCc4cc(Cl)cc(Cl)c4)C3)nc2n1 (stereo not drawn) [Compound 1798, 5-fluoro-2-(1-(3,5-dichlorophenethyl)piperidin-3-yl)-1H-imidazo[4,5-b]pyridine]
T. brucei; [1]
  EC50: 1.23 µM
MetRS (T. brucei)
  IC50: > 10 µM

## Fc1ccc2[nH]c(C3CCCC(NCc4cc(Cl)cc(Cl)c4)C3)nc2n1 (stereo not drawn) [Compound 1800, N-(3,5-dichlorobenzyl)-3-(5-fluoro-1H-imidazo[4,5-b]pyridin-2-yl) cyclohexanamine]
T. brucei; [1]
  EC50: 0.961 µM
MetRS (T. brucei)
  IC50: 0.663 µM

## O=C(NCc1nc2ccccc2[nH]1)C(=O)NCc1ccc(Cl)cc1Cl [Compound 1802, N1-((1H-benzo[d]imidazol-2-yl)methyl)-N2-(2,4-dichlorobenzyl)oxalamide]
T. brucei; [1]
  EC50: > 20 µM
MetRS (T. brucei)
  IC50: 4.29 µM

## O=C(CC(=O)Nc1ccc(Cl)cc1Cl)NCc1nc2ccccc2[nH]1 [Compound 1803, N1-((1H-benzo[d]imidazol-2-yl)methyl)-N3-(2,4-dichlorophenyl)malonamide]
T. brucei; [1]
  EC50: > 20 µM
MetRS (T. brucei)
  IC50: > 10 µM

## O=C(Cc1nc2ccc(Cl)cc2[nH]1)NCc1cc(Cl)cc(Cl)c1 [Compound 1804, N-(3,5-dichlorobenzyl)-2-(6-chloro-1H-benzo[d]imidazol-2-yl)acetamide]
T. brucei; [1]
  EC50: 15 µM
MetRS (T. brucei)
  IC50: 0.389 µM

## C[C@H](Cc1nc2ccc(Cl)cc2[nH]1)NCc1cc(Cl)cc(Cl)c1 [Compound 1806, [(2R)-1-(6-chloro-1H-1,3-benzodiazol-2-yl)propan-2-yl][(3,5-dichlorophenyl)methyl]amine]
T. brucei; [1]
  EC50: 3.33 µM
MetRS (T. brucei)
  IC50: 7.63 µM and 9.88 µM

## N[C@@H](COc1ccc(Cl)cc1Cl)C(=O)NCc1nc2ccccc2[nH]1 [Compound 1807, (S)—N-((1H-benzo[d]imidazol-2-yl)methyl)-3-(2,4-dichlorophenoxy)-2-aminopropanamide]
T. brucei; [1]
  EC50: 3.73 µM
MetRS (T. brucei)
  IC50: 1.55 µM

## CC(=O)N(Cc1ccc(Cl)cc1Cl)C1CCCC(c2nc3nc(Cl)ccc3[nH]2)C1 (stereo not drawn) [Compound 1810, N-(3-(5-chloro-1H-imidazo[4,5-b]pyridin-2-yl)cyclohexyl)-N-(2,4-dichlorobenzyl)acetamide]
T. brucei; [1]
  EC50: 4.53 µM
MetRS (T. brucei)
  IC50: 0.361 µM

## Clc1cc(Cl)cc(CN2CCC[C@H](c3nc4cc(Cl)ccc4[nH]3)C2)c1 [Compound 1813, (S)-5-chloro-2-(1-(3,5-dichlorobenzyl)piperidin-3-yl)-1H-benzo[d]imidazole]
T. brucei; [1]
  EC50: 1.38 µM
MetRS (T. brucei)
  IC50: 0.747 µM

## Clc1cc(Cl)cc(CN2CCCC(Cc3nc4nc(Cl)ccc4[nH]3)C2)c1 (stereo not drawn) [Compound 1814, 5-chloro-2-((1-(3,5-dichlorobenzyl)piperidin-3-yl)methyl)-1H-imidazo[4,5-b]pyridine]
T. brucei; [1]
  EC50: 7.21 µM
MetRS (T. brucei)
  IC50: 3.4 µM

## Clc1cc(Cl)cc(CNC2CCCC(c3nc4ccccc4[nH]3)C2)c1 (stereo not drawn) [Compound 1815, 3-(1H-benzo[d]imidazol-2-yl)-N-(3,5-dichlorobenzyl)cyclohexanamine]
T. brucei; [1]
  EC50: 4.09 µM
MetRS (T. brucei)
  IC50: > 10 µM

## CC(=O)N(Cc1cc(Cl)cc(Cl)c1)C1CCCC(c2nc3ccccc3[nH]2)C1 (stereo not drawn) [Compound 1816, N-(3-(1H-benzo[d]imidazol-2-yl)cyclohexyl)-N-(3,5-dichlorobenzyl) acetamide]
T. brucei; [1]
  EC50: 8.79 µM
MetRS (T. brucei)
  IC50: > 10 µM

## Clc1cc(Cl)cc(CNC2CCCC(c3nc4ncccc4[nH]3)C2)c1 (stereo not drawn) [Compound 1817, N-(3,5-dichlorobenzyl)-3-(1H-imidazo[4,5-b]pyridin-2-yl) cyclohexanamine]
T. brucei; [1]
  EC50: 2.06 µM
MetRS (T. brucei)
  IC50: > 10 µM

## CC(=O)N(Cc1cc(Cl)cc(Cl)c1)C1CCCC(c2nc3ncccc3[nH]2)C1 (stereo not drawn) [Compound 1818, N-(3-(1H-imidazo[4,5-b]pyridin-2-yl)cyclohexyl)-N-(3,5-dichlorobenzyl) acetamide]
T. brucei; [1]
  EC50: > 20 µM
MetRS (T. brucei)
  IC50: 7.95 µM

## CC(Cc1nc2ccccc2[nH]1)NCc1cc(Cl)cc(Cl)c1 (stereo not drawn) [Compound 1819, [1-(1H-1,3-benzodiazol-2-yl)propan-2-yl][(3,5-dichlorophenyl)methyl]amine]
T. brucei; [1]
  EC50: 8.9 µM
MetRS (T. brucei)
  IC50: 7.23 µM

## Cc1ccc2nc(CC(C)NCc3cc(Cl)cc(Cl)c3)[nH]c2c1 (stereo not drawn) [Compound 1820, [(3,5-dichlorophenyl)methyl][1-(6-methyl-1H-1,3-benzodiazol-2-yl)propan-2-yl]amine]
T. brucei; [1]
  EC50: 3.14 µM
MetRS (T. brucei)
  IC50: 0.29 µM

## CC(Cc1nc2ccc(Br)cc2[nH]1)NCc1cc(Cl)cc(Cl)c1 (stereo not drawn) [Compound 1821, [1-(6-bromo-1H-1,3-benzodiazol-2-yl)propan-2-yl][(3,5-dichlorophenyl)methyl]amine]
T. brucei; [1]
  EC50: 1.67 µM
MetRS (T. brucei)
  IC50: 0.054 µM

## CC(Cc1nc2cc(Cl)c(Cl)cc2[nH]1)NCc1cc(Cl)cc(Cl)c1 (stereo not drawn) [Compound 1822, [1-(5,6-dichloro-1H-1,3-benzodiazol-2-yl)propan-2-yl][(3,5-dichlorophenyl)methyl]amine]
T. brucei; [1]
  EC50: 3.57 µM
MetRS (T. brucei)
  IC50: 1.49 µM

## CC(Cc1nc2c(Cl)cc(Cl)cc2[nH]1)NCc1cc(Cl)cc(Cl)c1 (stereo not drawn) [Compound 1823, [1-(4,6-dichloro-1H-1,3-benzodiazol-2-yl)propan-2-yl][(3,5-dichlorophenyl)methyl]amine]
T. brucei; [1]
  EC50: 4.56 µM
MetRS (T. brucei)
  IC50: 2.29 µM

## CC(Cc1nc2cc(F)c(Cl)cc2[nH]1)NCc1cc(Cl)cc(Cl)c1 (stereo not drawn) [Compound 1824, [1-(6-chloro-5-fluoro-1H-1,3-benzodiazol-2-yl)propan-2-yl][(3,5-dichlorophenyl)methyl]amine]
T. brucei; [1]
  EC50: 2.24 µM
MetRS (T. brucei)
  IC50: 0.16 µM

## CC(Cc1nc2ccc(C(F)(F)F)cc2[nH]1)NCc1cc(Cl)cc(Cl)c1 (stereo not drawn) [Compound 1825, [(3,5-dichlorophenyl)methyl]({1-[6-(trifluoromethyl)-1H-1,3-benzodiazol-2-yl]propan-2-yl})amine]
T. brucei; [1]
  EC50: 3.65 µM
MetRS (T. brucei)
  IC50: 1.56 µM

## CC(Cc1nc2cc3ccccc3cc2[nH]1)NCc1cc(Cl)cc(Cl)c1 (stereo not drawn) [Compound 1826, [(3,5-dichlorophenyl)methyl](1-{1H-naphtho[2,3-d]imidazol-2-yl}propan-2-yl)amine]
T. brucei; [1]
  EC50: 7.94 µM
MetRS (T. brucei)
  IC50: 0.454 µM

## CC[C@@H](Cc1nc2ccc(Cl)cc2[nH]1)NCc1cc(Cl)cc(Cl)c1 [Compound 1827, [(2S)-1-(6-chloro-1H-1,3-benzodiazol-2-yl)butan-2-yl][(3,5-dichlorophenyl)methyl]amine]
T. brucei; [1]
  EC50: 5.02 µM
MetRS (T. brucei)
  IC50: 0.39 µM

## CC(C)[C@@H](Cc1nc2ccc(Cl)cc2[nH]1)NCc1cc(Cl)cc(Cl)c1 [Compound 1828, [(2R)-1-(6-chloro-1H-1,3-benzodiazol-2-yl)-3-methylbutan-2-yl][(3,5-dichlorophenyl)methyl]amine]
T. brucei; [1]
  EC50: 7.41 µM
MetRS (T. brucei)
  IC50: > 10 µM

## Clc1cc(Cl)cc(CNCCCc2nc3ccc(Cl)cc3[nH]2)c1 [Compound 1832, [3-(6-chloro-1H-1,3-benzodiazol-2-yl)propyl][(3,5-dichlorophenyl)methyl]amine]
T. brucei; [1]
  EC50: 2.15 µM
MetRS (T. brucei)
  IC50: 0.243 µM

## CC(=O)N(Cc1cc(Cl)cc(Cl)c1)N1CCCC(c2nc3cc(F)ccc3[nH]2)C1 (stereo not drawn) [Compound 1833, N-[(3,5-dichlorophenyl)methyl]-N-[3-(5-fluoro-1H-1,3-benzodiazol-2-yl)piperidin-1-yl]acetamide]
T. brucei; [1]
  EC50: > 20 µM
MetRS (T. brucei)
  IC50: > 10 µM
